Where a name gives a salt, the structure may show the parent alone. Read-outs that look alike come from different tables or passages of the source.
How the values were obtained:
[1] = Toxicity, isolated mice (death rate); conditions: mouse, in vivo, 4 hours after treatment, read-out: percentage death rate
Protocol: (§1) Batches of 10 mice are placed in boxes covered with grids (20 × 10 × 10 cm), either isolated individually, or in groups of 10. The test compound is administered orally to them. The death rate is noted 4 hours after the treatment.
(§2) Tables IV and V below give the percentage death rate for the products of Examples XXIV and XXVII compared with d-amphetamine sulphate.

[2] = Toxicity, mice in groups (death rate); conditions: mouse, in vivo, 4 hours after treatment, read-out: percentage death rate
Protocol: as §1, §2

[3] = Cardiovascular activity in anaesthetised dogs; format: in vivo; conditions: amphetamine injected intravenously
From the text: 5. CARDIOVASCULAR ACTIVITY

[4] = Potentiation of amphetamine: stereotypies in rats after d-amphetamine sulphate; format: in vivo; conditions: 30 min before 5 mg/kg d-amphetamine sulphate i.p., over 3 hours, maximum 24
Protocol: 1. POTENTIATION OF AMPHETAMINE
The test compound is administered intraperitoneally to rats 30 minutes before the intraperitoneal injection of 5 mg/kg of d-amphetamine sulphate. The intensity of the stereotypies over a period of 3 hours is assessed by attributing a number from 0 to 4. Table I indicates the sum of the assessments as a function of the doses administered. The maximum assessment is 24.

[5] = Anorexigenic activity in dogs; format: in vivo, Beagle dogs; conditions: Canis lupus familiaris, read-out: percentage inhibition of consuming food
Protocol: 2. ANOREXIGENIC ACTIVITY IN DOGS
Beagle dogs are conditioned to take their food over the course of 5 minutes once per day. The test compound is administered orally in the form of a single dose of 10 mg/kg one hour before the food is presented. The amount of food ingested is measured at regular intervals.
Table II gives the percentage inhibition of consuming food as a function of the time after treatment.

[6] = Beagle dogs, 10 mg/kg oral, 1 hr after treatment
[7] = Beagle dogs, 10 mg/kg oral, 2 hrs after treatment
[8] = Beagle dogs, 10 mg/kg oral, 4 hrs after treatment
[9] = Beagle dogs, 10 mg/kg oral, 24 hrs after treatment

SMILES | sum of the assessments of intensity of stereotypies ([4]; 4 mg/kg intraperitoneal) | sum of the assessments of intensity of stereotypies ([4]; 8 mg/kg intraperitoneal) | sum of the assessments of intensity of stereotypies ([4]; 16 mg/kg intraperitoneal) | inhibition in vivo at 10 mg/kg ([5]; po, 1 h) [%] | inhibition in vivo at 10 mg/kg ([5]; po, 2 h) [%] | sum of the assessments of intensity of stereotypies ([4]; 1 mg/kg intraperitoneal) | sum of the assessments of intensity of stereotypies ([4]; 2 mg/kg intraperitoneal) | sum of the assessments of intensity of stereotypies ([4]; 32 mg/kg intraperitoneal) | inhibition in vivo at 10 mg/kg [5, 6] [%] | inhibition in vivo at 10 mg/kg [5, 7] [%] | other results
CC(N)Cc1ccccc1 (stereo not drawn) [Amphetamine, d-amphetamine sulphate, reference compound] |  |  |  |  |  |  |  |  |  |  | mortality at 4 h ([1]; 16 mg/kg oral): 0%; mortality at 4 h ([1]; 32 mg/kg oral): 0%; mortality at 4 h ([1]; 64 mg/kg oral): 10%; mortality at 4 h ([1]; 128 mg/kg oral): 100%; mortality at 4 h ([2]; 4 mg/kg oral): 0%; mortality at 4 h ([2]; 8 mg/kg oral): 20%; mortality at 4 h ([2]; 16 mg/kg oral): 100%; mortality at 4 h ([2]; 32 mg/kg oral): 100%; pulmonary and systemic hypertension [3]: causes pulmonary and systemic hypertension
CC1(C)NC(C2CC2)CC1c1ccccc1.Cl (stereo not shown) [Example XXI, 2-cyclopropyl-4-phenyl-5,5-dimethylpyrrolidine hydrochloride] | 10 | 11 | 13 | 100 | 100 |  |  |  |  |  | inhibition in vivo at 10 mg/kg ([5]; po, 4 h): 70%; inhibition in vivo at 10 mg/kg ([5]; po, 24 h): 0%
CC1NC(C2CC2)CC1c1ccccc1.Cl (stereo not shown) [Example XXII, 2-cyclopropyl-4-phenyl-5-methyl-pyrrolidine hydrochloride] | 9 |  | 12 | 50 | 50 | 8 |  |  |  |  | inhibition in vivo at 10 mg/kg ([5]; po, 4 h): 0%
CC1(C)NC(C2CC2)CC1c1ccc(Cl)cc1.Cl (stereo not shown) [Example XXIII, 2-cyclopropyl-4-(p-chlorophenyl)-5,5-dimethyl-pyrrolidine hydrochloride] |  | 18 |  |  |  |  | 12 | 17 | 100 | 100 | inhibition in vivo at 10 mg/kg [5, 8]: 100%; inhibition in vivo at 10 mg/kg [5, 9]: 50%
CC1(C)NC(C2CC2)CC1c1cccc(C(F)(F)F)c1.Cl (stereo not shown) [Example XXX, 2-cyclopropyl-4-(m-trifluoromethylphenyl)-5,5-dimethylpyrrolidine hydrochl oride] | 24 |  | 24 |  |  | 20 |  |  | 0 | 0 | 
C#CCN1C(C)C(c2ccc(Cl)c(Cl)c2)CC1C1CC1.Cl (stereo not shown) [Example XXXV, N-propargyl-2-cyclopropyl-4-(3',4'-dichlorophenyl)-5-methylpyrrolidine hydrochloride] | 23 |  | 23 | 60 | 60 | 18 |  |  |  |  | inhibition in vivo at 10 mg/kg ([5]; po, 4 h): 60%; inhibition in vivo at 10 mg/kg ([5]; po, 24 h): 0%
CC1NC(C2CC2)CC1c1cccc(C(F)(F)F)c1.Cl (stereo not shown) [XXIX, 2-cyclopropyl-4-(m-trifluoromethylphenyl)-5-methyl-pyrrolidine hydrochloride] | 22 |  | 16 |  |  | 17 |  |  | 0 | 0 | 
CC1NC(C2CC2)CC1c1cccc(Cl)c1.Cl (stereo not shown) [XXV, 2-cyclopropyl-4-(m-chlorophenyl)-5-methylpyrrolidine hydrochloride] |  | 23 |  |  |  |  | 18 |  | 50 | 50 | sum of the assessments of intensity of stereotypies ([4]; 0.5 mg/kg intraperitoneal): 13; inhibition in vivo at 10 mg/kg [5, 8]: 50%; inhibition in vivo at 10 mg/kg [5, 9]: 0%
CC1(C)NC(C2CC2)CC1c1cccc(Cl)c1.Cl (stereo not shown) [XXVI, 2-cyclopropyl-4-(m-chlorophenyl)-5,5-dimethylpyrrolidine hydrochloride] | 14 |  | 19 |  |  | 12 |  |  | 60 | 60 | inhibition in vivo at 10 mg/kg [5, 8]: 60%; inhibition in vivo at 10 mg/kg [5, 9]: 0%
CC1(C)NC(C2CC2)CC1c1cccc(F)c1.Cl (stereo not shown) [XXVIII, 2-cyclopropyl-4-(m-fluorophenyl)-5,5-dimethylpyrrolidine hydrochloride] | 17 |  | 16 |  |  | 16 |  |  | 100 | 100 | inhibition in vivo at 10 mg/kg [5, 8]: 100%; inhibition in vivo at 10 mg/kg [5, 9]: 0%
COc1ccc(C2CC(C3CC3)NC2C)cc1OC.Cl (stereo not shown) [XXXI, 2-cyclopropyl-4-(3',4'-dimethoxyphenyl)-5-methylpyrrolidine hydrochloride] |  | 24 |  |  |  |  | 10 | 23 | 0 | 0 | 
CC1(C)NC(C2CC2)CC1c1ccc2c(c1)OCO2 (stereo not shown) [XXXII, 2-cyclopropyl-4-(3',4'-methylenedioxyphenyl)-5,5-dimethylpyrrolidine hydrochloride] |  | 24 |  | 100 | 100 |  | 18 | 23 |  |  | inhibition in vivo at 10 mg/kg ([5]; po, 4 h): 100%; inhibition in vivo at 10 mg/kg ([5]; po, 24 h): 0%
Cc1ccc(C2CC(C3CC3)NC2C)cc1.Cl (stereo not shown) [XXXIII, 2-cyclopropyl-4-(p-methylphenyl)-5-methyl-pyrrolidine hydrochloride] |  | 19 |  | 0 | 0 |  | 12 | 24 |  |  | 
CC1C(c2ccc(Cl)c(Cl)c2)CC(C2CC2)N1Cc1ccccc1.Cl (stereo not shown) [XXXIV, N-benzyl-2-cyclopropyl-4-(3',4'-dichlorophenyl)-5-methylpyrrolidine hydrochloride] |  | 21 |  |  |  |  | 20 | 15 | 100 | 100 | inhibition in vivo at 10 mg/kg [5, 8]: 100%; inhibition in vivo at 10 mg/kg [5, 9]: 50%; inhibition in vivo at 10 mg/kg ([5]; Beagle dogs, 10 mg/kg oral, 48 hrs after treatment): 0%
C#CCN1C(C)C(c2ccc(Cl)cc2)CC1C1CC1.Cl (stereo not shown) [XXXVI, N-propargyl-2-cyclopropyl-4-(p-chlorophenyl)-5-methylpyrrolidine hydrochloride] |  | 24 |  | 0 | 0 |  |  | 24 |  |  | 
CC1C(c2ccc(Cl)cc2)CC(C2CC2)N1CCO.Cl (stereo not shown) [XXXVII, N-hydroxyethyl-2-cyclopropyl-4-(p-chlorophenyl)-5-methylpyrrolidine hydrochloride] |  |  | 24 |  |  |  | 12 | 24 | 0 | 0 | 
CCN1C(C)C(c2cccc(C(F)(F)F)c2)CC1C1CC1 (stereo not shown) [XXXVIII, N-ethyl-2-cyclopropyl-4-(m-trifluoromethylphenyl)-5-methylpyrrolidine] | 24 | 24 |  | 0 | 0 | 20 |  |  |  |  | 

Reference: US4005103A, “Pyrrolidine derivatives” (priority 1973, dated 1977)
